Measured values from patent US20110212997A1, “PIPERIDINE-4-ACETAMIDE DERIVATIVES AND THEIR USE AS MONOAMINE NEUROTRANSMITTER RE-UPTAKE INHIBITORS” (NEUROSEARCH A/S, priority 2008, published 2011).

Tests used:
Format in all cases: biochemical
[1] = target: T1, noradrenaline (NA) reuptake in synaptosomes (Rattus norvegicus, UniProt Q63380); assay: Inhibition of NA reuptake in synaptosomes; conditions: synaptosomes, 3H-NA; read-out: NA-uptake IC50
T1 construct: in synaptosomes as described in WO 97/16451; from tissue
Description: (§1) Compounds were tested for their ability to inhibit the reuptake of the monoamine neurotransmitters dopamine (DA) noradrenaline (NA) and serotonine (5-HT) in synaptosomes as described in WO 97/16451 (NeuroSearch NS).
(§2) The test values are given as IC50 (the concentration (μM) of the test substance which inhibits the specific binding of ^3H-DA, ^3H-NA, or ^3H-5-HT by 50%).

[2] = target: T2, serotonine (5-HT) reuptake in synaptosomes (Rattus norvegicus, UniProt P31652); assay: Inhibition of 5-HT reuptake in synaptosomes; conditions: 3H-5-HT, read-out: 5-HT-uptake IC50
T2 construct: serotonine (5-HT) in synaptosomes as described in WO 97/16451; from tissue
Description: as §1, §2

[3] = target: T3, dopamine (DA) reuptake in synaptosomes (Rattus norvegicus, UniProt P23977); assay: Inhibition of DA reuptake in synaptosomes; conditions: synaptosomes, 3H-DA; read-out: DA-uptake IC50
T3 construct: in synaptosomes as described in WO 97/16451; from tissue
Description: as §1, §2

T2 sequence (P31652 whole entry): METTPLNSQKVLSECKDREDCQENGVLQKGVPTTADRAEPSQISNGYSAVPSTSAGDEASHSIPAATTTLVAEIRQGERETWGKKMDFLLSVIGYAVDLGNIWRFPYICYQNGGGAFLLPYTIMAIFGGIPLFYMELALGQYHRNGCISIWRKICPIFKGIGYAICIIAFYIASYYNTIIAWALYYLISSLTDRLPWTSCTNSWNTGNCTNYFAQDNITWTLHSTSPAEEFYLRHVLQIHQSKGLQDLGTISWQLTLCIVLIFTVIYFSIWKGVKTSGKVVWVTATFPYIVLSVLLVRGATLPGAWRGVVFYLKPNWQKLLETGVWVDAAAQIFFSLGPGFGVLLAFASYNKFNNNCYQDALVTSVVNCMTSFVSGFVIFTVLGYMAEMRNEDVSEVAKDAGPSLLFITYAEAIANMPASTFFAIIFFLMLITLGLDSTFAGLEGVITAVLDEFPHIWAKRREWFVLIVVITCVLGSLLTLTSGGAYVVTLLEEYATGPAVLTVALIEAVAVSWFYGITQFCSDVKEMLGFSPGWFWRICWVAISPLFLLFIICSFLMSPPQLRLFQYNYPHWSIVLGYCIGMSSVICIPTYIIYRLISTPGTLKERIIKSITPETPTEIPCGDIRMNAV
T1 sequence (Q63380 1-617): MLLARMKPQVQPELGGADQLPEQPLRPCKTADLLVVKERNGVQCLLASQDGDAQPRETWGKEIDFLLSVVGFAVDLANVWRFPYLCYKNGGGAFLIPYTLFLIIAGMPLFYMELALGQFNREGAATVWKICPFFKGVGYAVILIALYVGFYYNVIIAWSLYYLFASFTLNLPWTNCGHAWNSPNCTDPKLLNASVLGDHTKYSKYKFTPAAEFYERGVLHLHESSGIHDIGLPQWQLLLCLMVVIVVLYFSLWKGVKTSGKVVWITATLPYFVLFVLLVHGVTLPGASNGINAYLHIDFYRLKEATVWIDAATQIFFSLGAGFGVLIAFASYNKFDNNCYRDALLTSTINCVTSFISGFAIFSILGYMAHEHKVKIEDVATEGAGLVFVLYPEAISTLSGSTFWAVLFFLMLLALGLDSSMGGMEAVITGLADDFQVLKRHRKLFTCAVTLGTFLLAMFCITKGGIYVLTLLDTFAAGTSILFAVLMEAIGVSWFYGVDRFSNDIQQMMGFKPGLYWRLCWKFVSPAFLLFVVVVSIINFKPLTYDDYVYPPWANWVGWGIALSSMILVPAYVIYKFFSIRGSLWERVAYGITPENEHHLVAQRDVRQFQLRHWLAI
T3 sequence (P23977 whole entry): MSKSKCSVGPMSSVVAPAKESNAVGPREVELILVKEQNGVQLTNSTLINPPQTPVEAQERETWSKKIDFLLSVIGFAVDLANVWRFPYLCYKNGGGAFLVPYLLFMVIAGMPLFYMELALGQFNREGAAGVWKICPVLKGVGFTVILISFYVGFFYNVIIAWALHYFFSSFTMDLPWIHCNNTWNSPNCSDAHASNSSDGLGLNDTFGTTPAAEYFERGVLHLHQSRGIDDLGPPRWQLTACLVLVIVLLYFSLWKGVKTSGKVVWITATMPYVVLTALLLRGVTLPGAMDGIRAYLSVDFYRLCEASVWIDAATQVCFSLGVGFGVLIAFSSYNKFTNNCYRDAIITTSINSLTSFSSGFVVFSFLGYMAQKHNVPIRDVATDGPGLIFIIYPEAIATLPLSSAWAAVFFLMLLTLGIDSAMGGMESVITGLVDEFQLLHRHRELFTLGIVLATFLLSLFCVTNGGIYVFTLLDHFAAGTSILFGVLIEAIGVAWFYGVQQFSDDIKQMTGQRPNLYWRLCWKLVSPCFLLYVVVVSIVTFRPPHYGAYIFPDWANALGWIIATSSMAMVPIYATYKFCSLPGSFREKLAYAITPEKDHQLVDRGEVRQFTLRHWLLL

SMILES	IC50 [1]	IC50 [2]	IC50 [3]
CN(C(=O)CC1CCNCC1)c1ccc(Cl)c(Cl)c1 [Compound B1, N-(3,4-Dichloro-phenyl)-N-methyl-2-piperidin-4-yl-acetamide]	120 nM	280 nM	230 nM
CCN(C(=O)CC1CCNCC1)c1ccc(Cl)c(Cl)c1 [Compound C1, N-(3,4-Dichloro-phenyl)-N-ethyl-2-piperidin-4-yl-acetamide]	6.6 nM	1500 nM	15 nM
O=C(CC1CCNCC1)Nc1ccc(Cl)c(Cl)c1 [Compound C2, N-(3,4-Dichloro-phenyl)-2-piperidin-4-yl-acetamide]	> 1000 nM	23 nM	> 1000 nM
CCN(C(=O)CC1CCNCC1)c1ccc(Cl)cc1 [Compound C3, N-(4-Chloro-phenyl)-N-ethyl-2-piperidin-4-yl-acetamide]	770 nM	> 1000 nM	450 nM
CCN(C(=O)CC1CCNCC1)c1cccc(Cl)c1 [Compound C4, N-(3-Chloro-phenyl)-N-ethyl-2-piperidin-4-yl-acetamide]	460 nM	> 1000 nM	600 nM
CCN(C(=O)CC1CCNCC1)c1cccc2ccccc12 [Compound C5, N-Ethyl-N-naphthalen-1-yl-2-piperidin-4-yl-acetamide]	600 nM	> 1000 nM	> 1000 nM
CCN(C(=O)CC1CCNCC1)c1cccc(Cl)c1Cl [Compound C6, N-(2,3-Dichloro-phenyl)-N-ethyl-2-piperidin-4-yl-acetamide]	910 nM	> 1000 nM	> 1000 nM
CCN(C(=O)CC1CCNCC1)c1cc(Cl)ccc1Cl [Compound C7, N-(2,5-Dichloro-phenyl)-N-ethyl-2-piperidin-4-yl-acetamide]	1500 nM	> 1000 nM	2600 nM
CCN(C(=O)CC1CCNCC1)c1c(Cl)cccc1Cl [Compound C8, N-(2,6-Dichloro-phenyl)-N-ethyl-2-piperidin-4-yl-acetamide]	2700 nM	> 1000 nM	> 1000 nM
CCN(C(=O)CC1CCNCC1)c1cc(Cl)cc(Cl)c1 [Compound C9, N-(3,5-Dichloro-phenyl)-N-ethyl-2-piperidin-4-yl-acetamide]	670 nM	> 1000 nM	1900 nM
CCN(C(=O)CC1CCNCC1)c1ccc(Cl)c(Cl)c1Cl [Compound C10, N-Ethyl-2-piperidin-4-yl-N-(2,3,4-trichloro-phenyl)-acetamide]	120 nM	1400 nM	630 nM
CCN(C(=O)CC1CCNCC1)c1ccc(Br)c(Br)c1 [Compound C11, N-(3,4-Dibromo-phenyl)-N-ethyl-2-piperidin-4-yl-acetamide]	1.2 nM	610 nM	2.2 nM
CCCN(C(=O)CC1CCNCC1)c1ccc(Cl)c(Cl)c1 [Compound C12, N-(3,4-Dichloro-phenyl)-2-piperidin-4-yl-N-propyl-acetamide]	5.2 nM	880 nM	12 nM
CCN(C(=O)CC1CCNCC1)c1ccc(Cl)c(Br)c1 [Compound C13, N-(3-Bromo-4-chloro-phenyl)-N-ethyl-2-piperidin-4-yl-acetamide]	1.3 nM	1200 nM	8 nM
CCN(C(=O)CC1CCN(C)CC1)c1ccc(Cl)c(Cl)c1 [Compound D1, N-(3,4-Dichloro-phenyl)-N-ethyl-2-(1-methyl-piperidin-4-yl)-acetamide]	4.4 nM	1400 nM	20 nM
CCN(C(=O)CC1CCN(C)CC1)c1ccc(Cl)cc1 [Compound D2, N-(4-Chloro-phenyl)-N-ethyl-2-(1-methyl-piperidin-4-yl)-acetamide]	390 nM	> 1000 nM	970 nM
CCN(C(=O)CC1CCN(C)CC1)c1ccc(Cl)c(Cl)c1Cl [Compound D18, N-Ethyl-2-(1-methyl-piperidin-4-yl)-N-(2,3,4-trichloro-phenyl)-acetamide]	81 nM	2100 nM	–
